Our source for the EC50 and CC50 values is ChEMBL document CHEMBL1130489, “Synthesis and anti-HIV activity of some new aminoadamantane heterocycles” (Bioorg Med Chem Lett, 1997).

Holding throughout (conditions): Homo sapiens
The subject of assay [1] is MT4. Put plainly: Concentration required to protect MT-4 cells against the cytopathogenicity of HIV-1 (IIIB/LAI). The format is functional, cell-based. On the technique in general: Damage to the host cells serves as the signal in cytopathic effect assays.
For assay [2], the system named is MT4. The experiment in a line: Cytotoxic concentration required to reduce the viability of MT-4 cells by 50%. Format: functional.
Assay [3] relates to MT4. Put plainly: Concentration required to protect MT-4 cells against the cytopathogenicity of HIV-2 (ROD). Format: functional, cell-based.

With `CN(C)CCN1CCCCC1C12CC3CC(CC(C3)C1)C2` (configuration not stated), the EC50 (usually the concentration at which the effect is half-maximal) in the assay with MT4 [1] is 40.8 µM; in the assay on MT4 [3] it was > 276 µM. For the same molecule, in the assay with MT4 [2], the CC50 – broadly, the concentration giving 50% cytotoxicity – came out at 274 µM.

For the molecule `C1CCC(C23CC4CC(CC(C4)C2)C3)NC1` (configuration not stated), the EC50 with MT4 [1] and in the assay on MT4 [3] was > 403 µM in each case. The CC50 with MT4 [2] was 403 µM.

Take `c1ccc(CN2CCCCC2C23CC4CC(CC(C4)C2)C3)cc1` (configuration not stated): the EC50 in the assay with MT4 [1] and with MT4 [3] was > 64 µM in each case. Further, it took 62.7 µM to reach half-maximal cytotoxicity in the assay with MT4 [2] (CC50).

Regarding `S=C(Nc1ccc(Cl)cc1Cl)N1CCCCC1C12CC3CC(CC(C3)C1)C2` (configuration not stated), the EC50 in the assay on MT4 [1] and in the assay on MT4 [3] was > 19 µM throughout. Further, half-maximal cytotoxicity with MT4 [2] (CC50) was put at 17.7 µM.

In the case of `C1CCN(CC2CC2)C(C23CC4CC(CC(C4)C2)C3)C1` (configuration not stated), the values for the EC50 with MT4 [1] and in the assay on MT4 [3] were 75.2 µM and > 265 µM, respectively. The CC50 in the assay on MT4 [2] is 263 µM.

On to `CCN1CCCCC1C12CC3CC(CC(C3)C1)C2` (configuration not stated), for which the EC50 in the assay with MT4 [1] and in the assay with MT4 [3] was > 419 µM each time. This molecule came in with a CC50 with MT4 [2] of 417 µM.

For `O=C(Nc1ccc(Cl)cc1)N1CCCCC1C12CC3CC(CC(C3)C1)C2` (configuration not stated), the EC50 with MT4 [1] and in the assay on MT4 [3] was > 13 µM each time. Moreover, the midpoint of cytotoxicity in the assay on MT4 [2], the CC50, lay at 12.6 µM.

On to `C1CCN(CCN2CCCCC2C23CC4CC(CC(C4)C2)C3)CC1` (configuration not stated), for which the EC50 with MT4 [1] was 3.6 µM; in the assay with MT4 [3], > 54 µM. This molecule also yielded a CC50 in the assay with MT4 [2] of 52.6 µM.

As for `CN1CCCCC1C12CC3CC(CC(C3)C1)C2` (configuration not stated), the EC50 in the assay on MT4 [1] and in the assay on MT4 [3] was > 415 µM each time. In the assay with MT4 [2], the CC50 came to 413 µM.
